Assay results taken from ChEMBL document CHEMBL4152326 (2018).

Test system: Pseudomonas aeruginosa
Experiment: Antimicrobial activity against Pseudomonas aeruginosa SR24 in presence of human apo-transferrin by broth microdilution method
Format: functional

| SMILES | MIC [µg/mL] |
| --- | --- |
| CC(C)(O/N=C(\C(=O)N[C@@H]1C(=O)N2C(C(=O)[O-])=C(C[N@@+]3(C)C[C@H]4CN(C(=O)c5ccc(O)c(O)c5Cl)C[C@H]4C3)CS[C@H]12)c1csc(N)n1)C(=O)O | 0.25 |
| CC(C)(O/N=C(\C(=O)N[C@@H]1C(=O)N2C(C(=O)[O-])=C(C[N+]3(CCNC(=O)c4ccc(=O)n(O)c4)CCCC3)CS[C@H]12)c1csc(N)n1)C(=O)O | 2 |
| CC(C)(O/N=C(\C(=O)N[C@@H]1C(=O)N2C(C(=O)[O-])=C(C[N+]3(CCNC(=O)c4[nH]cc(O)c(=O)c4Cl)CCCC3)CS[C@H]12)c1csc(N)n1)C(=O)O | 2 |
| C[C@@H](O)[C@H]1C(=O)N2C(C(=O)O)=C(S[C@@H]3CN[C@H](C(=O)N(C)C)C3)[C@H](C)[C@H]12 [MEROPENEM] | ≤ 0.063 |

Test system: Pseudomonas aeruginosa
Experiment: Antimicrobial activity against AmpC overproducing Pseudomonas aeruginosa SR24-12 in presence of human apo-transferrin by broth microdilution method
Format: functional

| SMILES | MIC [µg/mL] |
| --- | --- |
| CC(C)(O/N=C(\C(=O)N[C@@H]1C(=O)N2C(C(=O)[O-])=C(C[N@@+]3(C)C[C@H]4CN(C(=O)c5ccc(O)c(O)c5Cl)C[C@H]4C3)CS[C@H]12)c1csc(N)n1)C(=O)O | 0.25 |
| CC(C)(O/N=C(\C(=O)N[C@@H]1C(=O)N2C(C(=O)[O-])=C(C[N+]3(CCNC(=O)c4ccc(=O)n(O)c4)CCCC3)CS[C@H]12)c1csc(N)n1)C(=O)O | 2 |
| CC(C)(O/N=C(\C(=O)N[C@@H]1C(=O)N2C(C(=O)[O-])=C(C[N+]3(CCNC(=O)c4[nH]cc(O)c(=O)c4Cl)CCCC3)CS[C@H]12)c1csc(N)n1)C(=O)O | 24 |
| C[C@@H](O)[C@H]1C(=O)N2C(C(=O)O)=C(S[C@@H]3CN[C@H](C(=O)N(C)C)C3)[C@H](C)[C@H]12 [MEROPENEM] | 0.125 |

Test system: Pseudomonas aeruginosa
Experiment: Antimicrobial activity against IMP-1 producing Pseudomonas aeruginosa SR27001 in presence of human apo-transferrin by broth microdilution method
Format: functional

| SMILES | MIC [µg/mL] |
| --- | --- |
| CC(C)(O/N=C(\C(=O)N[C@@H]1C(=O)N2C(C(=O)[O-])=C(C[N@@+]3(C)C[C@H]4CN(C(=O)c5ccc(O)c(O)c5Cl)C[C@H]4C3)CS[C@H]12)c1csc(N)n1)C(=O)O | 4 |
| CC(C)(O/N=C(\C(=O)N[C@@H]1C(=O)N2C(C(=O)[O-])=C(C[N+]3(CCNC(=O)c4ccc(=O)n(O)c4)CCCC3)CS[C@H]12)c1csc(N)n1)C(=O)O | 16 |

Test system: Pseudomonas aeruginosa
Experiment: Antimicrobial activity against VIM-2 producing Pseudomonas aeruginosa SBRKM-28 in presence of human apo-transferrin by broth microdilution method
Format: functional

| SMILES | MIC [µg/mL] |
| --- | --- |
| CC(C)(O/N=C(\C(=O)N[C@@H]1C(=O)N2C(C(=O)[O-])=C(C[N@@+]3(C)C[C@H]4CN(C(=O)c5ccc(O)c(O)c5Cl)C[C@H]4C3)CS[C@H]12)c1csc(N)n1)C(=O)O | 0.125 |
| CC(C)(O/N=C(\C(=O)N[C@@H]1C(=O)N2C(C(=O)[O-])=C(C[N+]3(CCNC(=O)c4[nH]cc(O)c(=O)c4Cl)CCCC3)CS[C@H]12)c1csc(N)n1)C(=O)O | 4 |

Test system: Pseudomonas aeruginosa
Experiment: Antimicrobial activity against IMP-1 producing Pseudomonas aeruginosa SR27060 in presence of human apo-transferrin by broth microdilution method
Format: functional

| SMILES | MIC [µg/mL] |
| --- | --- |
| CC(C)(O/N=C(\C(=O)N[C@@H]1C(=O)N2C(C(=O)[O-])=C(C[N@@+]3(C)C[C@H]4CN(C(=O)c5ccc(O)c(O)c5Cl)C[C@H]4C3)CS[C@H]12)c1csc(N)n1)C(=O)O | 4 |
| CC(C)(O/N=C(\C(=O)N[C@@H]1C(=O)N2C(C(=O)[O-])=C(C[N+]3(CCNC(=O)c4ccc(=O)n(O)c4)CCCC3)CS[C@H]12)c1csc(N)n1)C(=O)O | 8 |
| CC(C)(O/N=C(\C(=O)N[C@@H]1C(=O)N2C(C(=O)[O-])=C(C[N+]3(CCNC(=O)c4[nH]cc(O)c(=O)c4Cl)CCCC3)CS[C@H]12)c1csc(N)n1)C(=O)O | > 32 |

Test system: Pseudomonas aeruginosa
Experiment: Antimicrobial activity against Pseudomonas aeruginosa 27060deltaR1 harboring deletion of R1 plasmid in presence of human apo-transferrin by broth microdilution method
Format: functional

| SMILES | MIC [µg/mL] |
| --- | --- |
| CC(C)(O/N=C(\C(=O)N[C@@H]1C(=O)N2C(C(=O)[O-])=C(C[N@@+]3(C)C[C@H]4CN(C(=O)c5ccc(O)c(O)c5Cl)C[C@H]4C3)CS[C@H]12)c1csc(N)n1)C(=O)O | 0.5 |
| CC(C)(O/N=C(\C(=O)N[C@@H]1C(=O)N2C(C(=O)[O-])=C(C[N+]3(CCNC(=O)c4ccc(=O)n(O)c4)CCCC3)CS[C@H]12)c1csc(N)n1)C(=O)O | 4 |
| CC(C)(O/N=C(\C(=O)N[C@@H]1C(=O)N2C(C(=O)[O-])=C(C[N+]3(CCNC(=O)c4[nH]cc(O)c(=O)c4Cl)CCCC3)CS[C@H]12)c1csc(N)n1)C(=O)O | 8 |

Test system: Stenotrophomonas maltophilia
Experiment: Antimicrobial activity against L-1 producing Stenotrophomonas maltophilia SR21970 in presence of human apo-transferrin by broth microdilution method
Format: functional

| SMILES | MIC [µg/mL] |
| --- | --- |
| CC(C)(O/N=C(\C(=O)N[C@@H]1C(=O)N2C(C(=O)[O-])=C(C[N@@+]3(C)C[C@H]4CN(C(=O)c5ccc(O)c(O)c5Cl)C[C@H]4C3)CS[C@H]12)c1csc(N)n1)C(=O)O | 0.5 |
| CC(C)(O/N=C(\C(=O)N[C@@H]1C(=O)N2C(C(=O)[O-])=C(C[N+]3(CCNC(=O)c4ccc(=O)n(O)c4)CCCC3)CS[C@H]12)c1csc(N)n1)C(=O)O | 4 |
| CC(C)(O/N=C(\C(=O)N[C@@H]1C(=O)N2C(C(=O)[O-])=C(C[N+]3(CCNC(=O)c4[nH]cc(O)c(=O)c4Cl)CCCC3)CS[C@H]12)c1csc(N)n1)C(=O)O | 4 |
| C[C@@H](O)[C@H]1C(=O)N2C(C(=O)O)=C(S[C@@H]3CN[C@H](C(=O)N(C)C)C3)[C@H](C)[C@H]12 [MEROPENEM] | > 64 |

Test system: Acinetobacter baumannii
Experiment: Antimicrobial activity against OXA-23/OXA-58 producing Acinetobacter baumannii SR27323 in presence of human apo-transferrin by broth microdilution method
Format: functional

| SMILES | MIC [µg/mL] |
| --- | --- |
| CC(C)(O/N=C(\C(=O)N[C@@H]1C(=O)N2C(C(=O)[O-])=C(C[N+]3(CCNC(=O)c4ccc(=O)n(O)c4)CCCC3)CS[C@H]12)c1csc(N)n1)C(=O)O | 32 |
| CC(C)(O/N=C(\C(=O)N[C@@H]1C(=O)N2C(C(=O)[O-])=C(C[N+]3(CCNC(=O)c4[nH]cc(O)c(=O)c4Cl)CCCC3)CS[C@H]12)c1csc(N)n1)C(=O)O | 32 |

Test system: Klebsiella pneumoniae
Experiment: Antimicrobial activity against KPC-2 producing Klebsiella pneumoniae ATCC BAA-1705 in presence of human apo-transferrin by broth microdilution method
Format: functional

| SMILES | MIC [µg/mL] |
| --- | --- |
| CC(C)(O/N=C(\C(=O)N[C@@H]1C(=O)N2C(C(=O)[O-])=C(C[N+]3(CCNC(=O)c4ccc(=O)n(O)c4)CCCC3)CS[C@H]12)c1csc(N)n1)C(=O)O | 2 |
| CC(C)(O/N=C(\C(=O)N[C@@H]1C(=O)N2C(C(=O)[O-])=C(C[N+]3(CCNC(=O)c4[nH]cc(O)c(=O)c4Cl)CCCC3)CS[C@H]12)c1csc(N)n1)C(=O)O | 2 |

Test system: Escherichia coli
Experiment: Antimicrobial activity against SHV-4 producing Escherichia coli ATCC BAA-200 in presence of human apo-transferrin by broth microdilution method
Format: functional

| SMILES | MIC [µg/mL] |
| --- | --- |
| CC(C)(O/N=C(\C(=O)N[C@@H]1C(=O)N2C(C(=O)[O-])=C(C[N+]3(CCNC(=O)c4ccc(=O)n(O)c4)CCCC3)CS[C@H]12)c1csc(N)n1)C(=O)O | 8 |
| CC(C)(O/N=C(\C(=O)N[C@@H]1C(=O)N2C(C(=O)[O-])=C(C[N+]3(CCNC(=O)c4[nH]cc(O)c(=O)c4Cl)CCCC3)CS[C@H]12)c1csc(N)n1)C(=O)O | 16 |
| C[C@@H](O)[C@H]1C(=O)N2C(C(=O)O)=C(S[C@@H]3CN[C@H](C(=O)N(C)C)C3)[C@H](C)[C@H]12 [MEROPENEM] | ≤ 0.063 |
